# From patent US20250154165A1, “MULTIANTENNARY GLYCOLIPID MIMETICS” (CONSEJO SUPERIOR DE INVESTIGACIONES CIENTÍFICAS (CSIC), priority 2021, published 2025)
# What was measured:
# [1] = system: BMDC from MyD88 deficient mice; experiment: MyD88 dependency of BMDC maturation; type: cell-based; conditions: BMDC from MyD88 deficient mice (FIG. 16)
# Text: (§1) To determine whether the adjuvancy function of the representative compound 12 is MyD88-dependent or not, we performed experiments with immune cells isolated from MyD88 knocked-out (KO) mice. […] Data are dose-dependent and differences become more pronounced at the higher concentrations. […] Taken together, the results support that compound 12 adjuvancy function is MyD88-dependent.
# [2] = system: B6 mice; experiment: Adjuvancy function in vivo (serum IFNγ and IL-4 after injection)
# Method: FIG. 11. […] The adjuvancy capability of the selected compounds 8, 12, 18, 27, and 29 in vivo was assessed by measuring the serum level of IFNγ and IL-4 induced after injecting them into B6 mice.
# Besides assessing the ability of the new compounds to suppress inflammation, we also looked into their function to act as adjuvants, i.e. their ability to promote desirable immunological trends in the development of vaccines. We measured the in vivo adjuvancy capability of selected compounds 8, 12, 18, 27, and 29 in inducing IFNγ and IL-4 in B6 mice (FIG. 11).
# [3] = system: LPS-induced inflammation in B6 mice; experiment: Suppression of LPS-induced inflammation in vivo; conditions: injected twice in a half hour time after LPS-treatment (FIG. 3)
# Method: FIG. 3. […] The in vivo capability of compound 12 in suppressing LPS-induced inflammation in B6 mice was assessed as indicated in the scheme.
# To determine the anti-inflammatory function in vivo, we assessed the capability of compound 12 in suppressing LPS-induced inflammation in B6 mice.
# [4] = system: p38; experiment: Signal transduction by multiplex bead array: p38 phosphorylation; type: cell-based; conditions: comparing to LPS treatment alone (FIG. 4)
# Text: (§2) FIG. 4. […] Compound 12, a representative compound of the invention, was examined in term of signal transduction to explore how the new compounds exert their suppressive effect, using the multiplex bead array.
# (§3) Using the multiplex bead array, we examined how the new compounds might exert their suppressive effect in term of signal transduction.
# [5] = system: DC-maturation marker CD86 in the spleen of mice; experiment: DC maturation in vivo (CD86 mRNA in spleen); conditions: mice injected with the compound (FIG. 12)
# Method: FIG. 12. […] The capability of selected compounds 8, 12, 18, 27, and 29 in promoting DC maturation in vivo was assessed by the mRNA level of DC-maturation marker CD86 in the spleen of mice injected with the compounds of the invention.
# The capability of selected compounds 8, 12, 18, 27, and 29 in promoting DC maturation in vivo was assessed by the mRNA level of DC-maturation marker CD86 in the spleen of mice injected with the compounds of the invention.
# [6] = system: bone marrow-derived dendritic cells (BMDC) from MyD88 KO mice; experiment: MyD88 dependency of IL-12p40 production (BMDCs in vitro); type: cell-based; conditions: BMDC from MyD88 KO mice compared with BMDC from wild-type mice; dose-dependent (FIG. 15)
# Text: FIG. 15. […] The effect was dose-dependent, and the difference became more pronounced at a higher concentration.
# as §1
# [7] = system: Splenocytes; experiment: Immune-stimulating function of compounds alone (splenocytes in vitro); type: cell-based, mouse
# Method: FIG. 6. […] Splenocytes were treated with the compounds of the invention alone to assess the immune-stimulating function of the compounds. Compounds 12, 18, 22, 27, and 29 induced significant IFNγ secretion, and compound 8 induced significant IL-4 secretion.
# (§4) The whole spleen was surgically removed from a mouse and mechanically dissociated into a single cell suspension of splenocytes, which were then cultured in the complete RPMI 1640 medium (cRPMI). Human peripheral blood mononuclear cells (PBMCs) from healthy volunteers were collected from whole blood through gradient-centrifugation with Histopaque-1077 (Sigma-Aldrich).
# Splenocytes were treated with the compounds of the invention alone to assess the immune-stimulating function of the compounds by measuring their ability to promote the secretions of IFN-γ and IL-4.
# [8] = system: OVA-induced AHR mouse model; experiment: Suppression of OVA-induced airway hyperreactivity (AHR) in vivo; conditions: OVA-induced AHR mouse model (FIG. 7)
# Method: FIG. 7. […] The capability of selected compounds 8, 12, 18, and 27 in suppressing Th2 inflammation in vivo was assessed using the OAV-induced AHR mouse model.
# For ovalbumin (OVA) challenge, mice were sensitized intraperitoneally (i.p.) with 50 μg of OVA with 2% alhydrogel adjuvant (InvivoGen). Mice were challenged three times with 50 μg of OVA on day 7 post-sensitization, either daily or every other day. Mice were sacrificed the day after the last OVA challenge. The scheme of the OT-1 adoptive transfer mouse model for examining the proliferation of CD8^+ T cells in adjuvanting OVA challenge is described in FIG. 13.
# Mice were anesthetized with 100 mg per kg body weight pentobarbital (Sigma-Aldrich), tracheotomised and mechanically ventilated via the FinePointe RC system (Buxco Research Systems, Wilmington, NC). Lung function was assessed by measuring lung resistance and dynamic compliance in response to increasing doses of aerosolized methacholine (1.25-40 mg/mL, Sigma-Aldrich).
# Using the Th2 OVA-induced AHR mouse model, we assessed the capability of selected compounds 8, 12, 18, and 27 in suppressing Th2 inflammation.
# [9] = system: bone marrow-derived macrophages (BMDM) treated with LPS; experiment: Suppression of LPS-induced inflammation in bone marrow-derived macrophages (BMDM in vitro); type: cell-based; conditions: BMDM (FIG. 2)
# Text: Since macrophage is the major responder to LPS-induced inflammation, we assessed the capability of selected compounds to suppress LPS-induced inflammation in bone marrow-derived macrophages (BMDM).
# [10] = system: JNK; experiment: Signal transduction by multiplex bead array: JNK phosphorylation; type: cell-based; conditions: comparing to LPS treatment alone (FIG. 4)
# Text: as §2, §3
# [11] = system: Splenocytes treated with LPS; experiment: Suppression of LPS-induced inflammation (splenocytes in vitro); type: cell-based, mouse; conditions: splenocytes treated concurrently with compound and LPS (FIG. 1)
# Method: FIG. 1. […] Splenocytes were treated concurrently with the compounds of the invention and LPS to assess the suppressive function of compounds on LPS-induced inflammation, with several compounds showing prominent suppressive function.
# as §4
# Splenocytes were treated concurrently with the compounds of the invention and LPS to assess the suppressive function of compounds on LPS-induced inflammation.
# [12] = system: STAT3; experiment: Signal transduction by multiplex bead array: STAT3 phosphorylation; type: cell-based; conditions: comparing to LPS treatment alone (FIG. 4)
# Text: as §2, §3
# [13] = system: Splenocytes treated with αGalCer; experiment: Suppression of αGalCer-induced inflammation (splenocytes in vitro); type: cell-based, mouse; conditions: splenocytes treated concurrently with compound and αGalCer (FIG. 5)
# Method: FIG. 5. […] Splenocytes were treated concurrently with the compounds of the invention and αGalCer to assess the suppressive function of compounds on αGalCer-induced inflammation, with several compounds showing prominent suppressive function.
# as §4
# Splenocytes were treated concurrently with the compounds of the invention and αGalCer to assess their ability to suppress αGalCer-induced inflammation.
# [14] = 2 hours after injection (FIG. 11)
# [15] = 18 hours after injection (FIG. 11)
# [16] = splenocytes treated with compound alone (FIG. 6)
smiles,measurement,setting,value
CCCCCCCCCCCCNC(=O)C(COC1C(O)C(O)C(O)C2COC(=O)N21)NC(=O)CCCCCCCCCCC (stereo not drawn) [Compound 12],maturation of BMDC induced by compound treatment,[1],impeded
same,serum level of IFNγ induced,[2]; [14],significant capability in inducing
same,serum level of IL-4 induced,[2]; [14],significant capability in inducing
same,serum level of IFNγ induced,[2]; [15],significant detectable level
same,serum level of IL-4 induced,[2]; [15],significant detectable level
same,level of IL-6 in sera,[3],significantly suppressed
same,level of TNFα in sera,[3],significantly suppressed
same,phosphorylation of p38,[4],significantly reduced
same,CD86 mRNA expression in the spleens of mice,[5],significant increase
same,IL-12p40 production in response to compound,[6],severely curtailed
same,Th1/Th2 bias,[7]; concluded from IFNγ and IL-4 secretion of splenocytes (FIG. 6),Th1-biased
same,IFNγ secretion,[7]; [16],effective in promoting the productions of IFNγ
same,IL-4 secretion,[7]; [16],not IL-4
same,suppression of airway hyperreactivity (AHR),[8],can suppress AHR onset
same,suppression of LPS-induced inflammation,[9],particularly efficient in suppressing LPS-induced inflammation
same,suppression of IL-6,[9]; LPS-induced,significant suppression
same,suppression of TNFα,[9]; LPS-induced,significant suppression
same,phosphorylation of JNK,[10],not JNK
same,suppressive function on LPS-induced inflammation,[11],prominent inflammation-suppressing function
same,phosphorylation of STAT3,[12],significant reduction of phosphorylation
same,suppressive function on αGalCer-induced inflammation,[13],prominent inflammation-suppressing function
